The values that follow come from patent publication EP4759810A1, “PROTAC TARGETING BCL-XL PROTEIN AND USE THEREOF” (BEIJING SUNCELL BIO-MEDICAL CO., LTD., priority 2023, dated 2025).

Where two headings read alike, the source gives them in different places.

In data set [1] the test system is Molt-4 cells. Briefly: Molt-4 cell killing activity test (CCK-8). The data set is classed as cell-based. As to conditions: for EC50: Homo sapiens. Summed up:
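Molt-4 cells in RPMI-1640 with 10% FBS were exposed to compounds at 0.001–3 µM final, triplicate wells, for three days at 37°C. Viability was read by CCK-8 absorbance at 450 nm after 0.5–2 h, expressed relative to blank control.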

For data set [2], the system named is Molt-4 cells. The data set is described as follows: Detection of E3 enzyme-dependence: Molt-4 cell killing with or without pomalidomide (CCK-8). It counts as cell-based. Conditions: 10 µM pomalidomide, Figure 2.
The next data set addresses T1, Bcl-xL protein (Homo sapiens, UniProt Q07817).
T1 construct: host or cells: Molt-4 cells
Briefly: Degradation experiment of Bcl-xL target protein (Western blot in Molt-4 cells). It counts as cell-based. Conditions: 100 nM, 0, 2, 6, 16 h, GAPDH internal control, Figure 4. How it is done: Actively growing and healthy Molt-4 cells were subcultured into a fresh RPMI-1640 medium containing 10% fetal bovine serum, and each PROTAC molecule was added thereto at a final concentration of 100 nM. After drug treatment for the specified times (0, 2, 6, and 16 hours), the cells were collected, the supernatant was discarded by centrifugation, and the cells were washed twice with pre-cooled PBS buffer. Total protein was extracted with a lysis buffer (Servicebio, G2002-100ML), and the protein concentration was normalized by using a BCA protein quantification kit (Servicebio, G2026). Protein samples were mixed with a protein-loading buffer and incubated at 95°C for 5 minutes. Western blotting experiments were performed by using the following antibodies: Bcl-xL (Abcam, catalog number ab32370), diluted at 1:500; GAPDH antibody (Servicebio, catalog number GB15004), diluted at 1:1000; and horseradish peroxidase-conjugated goat anti-rabbit secondary antibody (Servicebio, catalog number GB23303), diluted at 1:5000.
A general note: A western blot detects proteins with antibodies after separation by electrophoresis.

The subject of the next data set is platelets. The data set is described as follows: In vivo platelet toxicity test in mice.
[3] abbreviates: 72 h, Molt-4 cells, three days, CCK-8, read-out: EC50 (Molt-4).
Setting [4] is: Bcl-xL-positive Molt-4 cells, read-out: cellular activity / killing activity (Molt-4 cells).

T1 sequence (Q07817 whole entry): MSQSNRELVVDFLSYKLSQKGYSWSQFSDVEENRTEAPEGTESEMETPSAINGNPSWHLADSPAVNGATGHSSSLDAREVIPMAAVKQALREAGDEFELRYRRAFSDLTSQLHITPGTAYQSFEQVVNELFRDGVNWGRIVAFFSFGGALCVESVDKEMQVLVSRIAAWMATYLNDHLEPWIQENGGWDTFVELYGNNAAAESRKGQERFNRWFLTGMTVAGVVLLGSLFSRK
Procedure for platelets: The in vivo platelet toxicity test was performed by using 5-6 week old female C57BL/6J mice. The C57BL/6J mice were purchased from Beijing Vital River Laboratory Animal Technology Co., Ltd. and housed under specific pathogen-free (SPF) conditions, with a 12-hour light/12-hour dark cycle, and free access to food and water. […] Different doses of the molecules to be tested (e.g., 0.1, 0.5, 2.5 mg/kg or 2, 5, 20 mg/kg) were prepared in advance with the aforementioned vehicle, and administered to mice via intraperitoneal injection at a volume of 200 µL for each mouse. After administration was completed, approximately 50 µL of blood was collected from each mouse at different time points via the intra-canthus sampling method into EDTA anticoagulant tubes (RAM Scientific), then a routine analysis of blood was performed by using a hematology analyzer, and the platelets was counted.

As to `O=C1CCC(N2C(=O)c3cccc(NCCN4CCC(CN5CCN(CC#Cc6ccc(OCCCc7ccc(N8CCc9cccc(C(=O)Nc%10nc%11ccccc%11s%10)c9C8)nc7C(=O)O)c(F)c6)CC5)CC4)c3C2=O)C(=O)N1` (stereo not shown) [APQ2], the “killing Molt-4 cells at different concentrations (Figure 1), in words” value with Molt-4 cells [1] (Figure 1, 0.001-3 µM, comparison with control molecules) is recorded as “comparable to A-1331852”. Besides, the EC50 in the data set on Molt-4 cells [1] (setting [3]) and in the data set on Molt-4 cells [1] (setting [4]) was less than 10 nM throughout. In addition, the “cell killing activity after addition of pomalidomide (+poma) compared to without (-poma)” value in the data set on Molt-4 cells [2] is “significantly reduced cell killing activity”. The “degradation of the Bcl-xL protein” value at Bcl-xL protein is “had the ability to degrade the Bcl-xL protein”. Besides, the platelet number entry in the data set with platelets (intraperitoneal, three tested dose groups 0.1, 0.5, and 2.5 mg/kg, Figure 5A) was “no significant decrease in platelet number”.
With `O=C1CCN(c2ccc(N3CCC(CN4CCN(CC#Cc5ccc(OCCCc6ccc(N7CCc8cccc(C(=O)Nc9nc%10ccccc%10s9)c8C7)nc6C(=O)O)c(F)c5)CC4)CC3)cc2)C(=O)N1` [APQ10], the EC50 with Molt-4 cells [1] (setting [3]) and in the data set on Molt-4 cells [1] (setting [4]) was less than 10 nM each time. Also, the “cell killing activity after addition of pomalidomide (+poma) compared to without (-poma)” value with Molt-4 cells [2] is “significantly reduced cell killing activity”. Besides, the “degradation of the Bcl-xL protein” value on Bcl-xL protein is listed as “had the ability to degrade the Bcl-xL protein”. In addition, the “platelet number in peripheral blood, in words” value in the data set with platelets (intraperitoneal, 5 mg/kg, Figure 5B) was “slightly decrease in platelet number”. The “platelet number at the highest dose” value in the data set with platelets (intraperitoneal, 20 mg/kg, decrease lower than A-1331852 at 2 mg/kg, Figure 5C) was “significant decrease in the platelet number”. In addition, the “platelet toxicity compared to A-1331852 at equivalent doses” value with platelets (intraperitoneal, 2, 5, and 20 mg/kg, Figure 5C) is “lower platelet toxicity”.
